The values that follow come from US20260071252A1, “REVERSIBLE NANOPARTICLE AGGREGATES AND METHODS FOR DETECTING PROTEASES” (The Regents of the University of California, priority 2022, published 2026).

Where no end group is shown, it is not given here.

Data set [1] concerns trypsin activity. Kind of data set: Detection of trypsin activity in vivo with photoacoustic imaging, gold nanorods assemblies. Particulars: mouse model.
Data set [2] has as its system trypsin. Briefly: Trypsin sensing with HS-PEG-peptide conjugates and Arg-Arg-AuNPs assemblies. The format is biochemical. Here is the method: Peptides containing the motif Arg-Arg-Lys (RRK) were thus conjugated to a thiolated PEG capped with a carboxyl group (HS-PEG12-COOH, Mw=634 Da) via EDC/NHS cross-linking reaction. Three peptides based on the motif RRK were investigated and the number of RRK repetitions varied from 1 to 3 to increase the mass and charge of the resulting HS-PEG-peptide conjugate (FIG. 6A).
From concentrations of 10 μM, HS-PEG12-COOH is capable to dissociate 100% of the assemblies (FIG. 21). However, the conjugation of the peptides to the HS-PEG12-COOH was expected to decrease its capacity to dissociate the assemblies as it increases its size and charge. In this context, the addition of the HS-PEG-peptide conjugates to AuNPs assemblies could not generate a colorimetric signal. However, in the presence of trypsin, the proteolytic cleavage could progressively remove the amino acids residues from the conjugate, thus reducing its size and charge that would restore the dissociation capacity. A colorimetric signal, proportional to the trypsin activity, could thus be observed (FIG. 6B).
Typically, 1 mL of HS-PEG12-COOH (HS—(CH2CH2O)12—CH2CH2COOH, 634 Da, 1 mM) dissolved in MES buffer (10 mM, pH=5.5) was activated via the addition of 100 μL of EDC (50 mM, MES) and 40 μL of NHS (500 mM, MES). The reaction was stirred at room temperature for one hour. After one hour, 1 mL of peptide (or NH2-molecule) (1 mM) dissolved in PBS (100 mM, pH=7.4) was added to the activated HS-PEG12-COOH. The reaction was stirred for 4 hours at room temperature and then stored at 4° C.
Typically, 5 μL of the PEG-peptide conjugate (0.44 mM) were added to 5 μL of PBS 1×. […] At the end of the incubation, 100 μL of aggregated AuNPs (Arg-Arg-AuNPs) were added, and a color change proportional to the trypsin concentration was observed. UV-Vis spectra were recorded 30 minutes later.

Data set [3] in a line: Dissociation of Arg-Arg-AuNPs assemblies with HS-PEGs (UV-Vis percentage of dissociation, MANTA size). The source says: Dissociation of the AuNPs assemblies. […] HS-PEG6-OCH3 was chosen because its grafting on AuNPs ensure a high colloidal stability of these latter. Indeed, the grafting of thiolated PEGs has been widely reported in the literature via the formation of a strong Au—S bond conferring to the particles a high colloidal stability due to a combination of hydrophilicity and steric hindrance.^30-32 The Au—S bond being stronger than the arginine-citrate, arginine-gold or even citrate-gold interactions, […] was expected to be capable of progressively replacing the arginine/citrate layers at the gold surface, disrupting the electrostatic network, and eventually dispersing the AuNPs (Scheme 1). Briefly, aqueous suspensions Arg-Arg-AuNPs assemblies were exposed to increasing concentrations of HS-PEG6-OCH3, and the dissociation of the assemblies was characterized by TEM, MANTA, FTIR and UV-Vis spectroscopies (FIG. 2).
The presence of a PEG layer around the AuNPs explains the difference in the hydrodynamic diameter versus the initial AuNPs-citrate (48±32 nm vs 40±25 nm). Remarkably, the LSPR band of the dissociated AuNPs was identical to the AuNPs-citrate: The color of the sample returned to its initial bright red color. […] For the remainder of this study, the efficiency of the dissociation will be characterized by the percentage of dissociation (%) as measured by UV-Vis spectroscopy (comparison between the LSPR band after dissociation versus that from AuNPs-citrate). See the experimental section in the supporting information for more details. […] This finding is particularly interesting because the typical grafting density of HS-PEG6-OCH3 on dispersed AuNPs is reported to be between 3.5 and 4 HS-PEG6-OCH3/nm^2.^33 This implies that no excess of HS-PEGs was needed to dissociate the entire assembly-only enough to cover all the gold surface. It is worth noting that the kinetics of the dissociation was almost instantaneous (equilibrium reached within a minute) (FIG. 14). A video of the dissociation of the AuNPs assemblies is available online.
Dissociation. Stock solutions of the different HS-PEGs with concentrations ranging from 10 μM to 1 mM were prepared. Specific volumes of each solution were added to a 96-well plate in order to reach the desired final HS-PEGs concentration and then 100 μL of Arg-Arg-AuNPs were added. For complex matrices experiments, the Arg-Arg-AuNPs were first concentrated 10 times by centrifugation and then dispersed in complex media (sea water, pooled human saliva, plasma, urine, bile or HEK cell lysates) that represented thus 90% of the total volume except for bile, which was only 20%. Quickly after the addition of AuNPs, the dissociation of the assembly was monitored and the ratio of the absorbances at 520 nm and 700 nm was recorded over time. The percentage of dissociation is described as follows:
The optical absorption measurements were collected using a hybrid multi-mode microplate reader (Synergy™ H1 model, BioTek Instruments, Inc.) in a 96-well plate. The dissociation of assembly was characterized by measuring the ratio of the absorbance at 520 nm or 530 nm and 700 nm or 820 nm for 20 nm NPs or 40 nm NPs, respectively.
The multispectral advanced nanoparticle tracking analysis (MANTA) is a technique that builds images from the particles' light scattering via three lasers of different wavelengths (for example, blue, green, and red); the wavelength of scattering depends on nanoparticle size. Thus, small particles (less than, or <, 100 nm) appear blue while larger particles appear greener or redder. MANTA uses these images to count the nanoparticles and calculate their size based on Brownian motion. […] 3000™ (Horiba Scientific, USA). The temperature was set to 25° C. during the measurement. Automated noise analysis determines the optimal wavelength for representing each nanoparticle. Here, 8-bit composite videos were generated, and 10 videos were used per analysis (300 frames for seconds).

A short description of data set [4]: Dissociation efficiency of HS-PEG6-OCH3 for alternative assembly conditions or coating ligands. The following applies: high concentration (>100 μM) of HS-PEG6-OCH3.
Procedure: First, peptide-free conditions were used to promote the assembly of AuNPs-citrate and its dissociation with HS-PEG6-OCH3 was evaluated (FIG. 3A). Here, salts were added to AuNPs-citrate to induce aggregation via disruption of the electrostatic repulsion forces between the particles. […] Unlike the peptide Arg-Arg, these ions cannot sterically prevent the AuNPs from falling in an irreversible aggregated state.
AuNPs with different coating ligands were also evaluated and compared to citrate: bis(p-sulfonatophenyl)phenylphosphine (BSPP), mercaptobenzoic acid (MBA), or thiolated PEG-COOH (HS-PEG-COOH; Mw=634 g·mol^−1). […] This is because MBA and HS-PEG-COOH make covalent Au—S bonds with the gold surface that prevent subsequent grafting of HS-PEG6-OCH3.
Finally, an alternative control peptide was used for assembly (Cys-Arg-Lys).
For data set [5], the system named is T1, HS-PEG-RRKRRKRRK conjugate.
T1 sequence: RRKRRKRRK

For data set [6], the system named is T2, HS-PEG-TSG conjugate.
T2 sequence: TSG

Data set [7] concerns T3, HS-PEG-RRK conjugate.
T3 sequence: RRK

Data set [8] has as its system T4, HS-PEG-RRKRRK conjugate.
T4 sequence: RRKRRK

Data set [9] is described as follows: Dissociation of AgNP aggregates by A18 fragments released by Mpro cleavage. Particulars: AgNPs 20 nm, color from blue to yellow.
Data set [10] has as its target SARS-CoV-2 main protease (Mpro) (Severe acute respiratory syndrome coronavirus 2, UniProt P0DTD1).

In the case of “HS-PEG-RRKRRK: HS-PEG12-COOH conjugated to peptide RRKRRK via EDC/NHS; mixture of single and multiple conjugations (also: HS-PEG12 conjugated via EDC/NHS, site not given here, mixture of single and multiple conjugations)”, in [1], the photoacoustic signal entry is listed as “increase of photoacoustic signal”. For the same molecule, the “dissociation capacity of the intact conjugate” value in data set [2] (titrated to Arg-Arg-AuNPs, up to >100 μM, no trypsin) was “total quenching of the dissociation capacity”. Moreover, the “dissociation capacity after digestion with trypsin” value in [2] (trypsin 10 μM, 37° C., 24 h) is given as “restored”. Further, the “limit of detection of trypsin” value in [2] (visual detection) is “picomolar”.
For `COCCOCCOCCOCCOCCOCCOCCS` [HS-PEG6-OCH3, 0-(2-mercaptoethyl)-O′-methyl-hexa(ethylene glycol)], the “size of the aggregates (MANTA)” value in data set [3] (2 μM HS-PEG6-OCH3, 10 minutes, from 467±120 nm) came out at 167±112 nm. Further, the entries for the “average size of the aggregates (MANTA)” value in data set [3] (4 μM HS-PEG6-OCH3) and in data set [3] (8 μM HS-PEG6-OCH3) were 136±85 nm and 124±75 nm, respectively. In data set [3] (10 μM HS-PEG6-OCH3, plasma, urine, saliva, bile, HEK 293 cell lysates, sea water, matrix at least 90% of volume), the “dissociation in complex matrices” value was “At least 80%”. Moreover, the aggregates dissociated in [3] (12 μM HS-PEG6-OCH3, LSPR band identical to AuNPs-citrate) was 100%. In addition, the “mean size (MANTA)” value in data set [3] (12 μM HS-PEG6-OCH3 and above) was 48±25 nm. In [4], the “dissociation of the assembly by HS-PEG6-OCH3” value was “could not dissociate the assemblies”.
Consider trypsin, for which the “dissociation capacity for Arg-Arg-AuNPs after trypsin digestion” value in data set [5] is “the dissociation capacity of HS-PEG-RRKRRK (SEQ ID NO:13) and HS-PEG-[..] (SEQ ID NO:14) was restored”; in [6], “It is not impacted by the digestion by trypsin”; in data set [7] it was “HS-PEG-RRK was also enhanced”; in [8], “the dissociation capacity of HS-PEG-RRKRRK (SEQ ID NO:13) and HS-PEG-[..] (SEQ ID NO:14) was restored”.
Turning to CGGKKEEAVLQ [A18 fragment], the “dissociation of AgNP aggregates” value in [9] was “could dissociate AgNP aggregates”. Moreover, in data set [10], the CDC stood at 40 µM, the “size of AuNP aggregates after dissociation” value is reported as 26±0.30 nm, the “surface charge after dissociation” value was −27±0.95 mV and the time for dissociation is no more than 10 min.
